Each block holds one compound with its values, some of them ahead of it.
Tested on: 276233-004-R-J1-PDC complex spheroid viability
Experiment: Anticancer human tumor 276233-004-R-J1-PDC patient-derived colon adenocarcinoma cell line growth inhibition [GQUAD]
Conditions: for IC50: curve of first compound; for viability, T/C: stronger effect = lower value
How it was run: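 Multi-cell-type spheroids of tumor cells with HUVEC and mesenchymal stem cells, treated with drug combinations. Concentrations descend in half-log steps from near clinical Cmax, or from 10 microM where Cmax is unknown; viability read-out.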

[1] = second compound 0.0316 µM, first compound 0.0316 µM
[2] = second compound 0.0316 µM, first compound 0.1 µM
[3] = second compound 0.0316 µM, first compound 0.316 µM
[4] = second compound 0.0316 µM, first compound 1 µM
[5] = second compound 0.0316 µM, first compound 3.16 µM
[6] = second compound 0.0316 µM, first compound 10 µM
[7] = second compound 0.1 µM, first compound 0.0316 µM
[8] = second compound 0.1 µM, first compound 0.1 µM
[9] = second compound 0.1 µM, first compound 0.316 µM
[10] = second compound 0.1 µM, first compound 1 µM
[11] = second compound 0.1 µM, first compound 3.16 µM
[12] = second compound 0.1 µM, first compound 10 µM
[13] = second compound 0.316 µM, first compound 0.0316 µM
[14] = second compound 0.316 µM, first compound 0.1 µM
[15] = second compound 0.316 µM, first compound 0.316 µM
[16] = second compound 0.316 µM, first compound 1 µM
[17] = second compound 0.316 µM, first compound 3.16 µM
[18] = second compound 0.316 µM, first compound 10 µM
[19] = second compound 1 µM, first compound 0.0316 µM
[20] = second compound 1 µM, first compound 0.1 µM
[21] = second compound 1 µM, first compound 0.316 µM
[22] = second compound 1 µM, first compound 1 µM
[23] = second compound 1 µM, first compound 3.16 µM
[24] = second compound 1 µM, first compound 10 µM
[25] = second compound 3.16 µM, first compound 0.0316 µM
[26] = second compound 3.16 µM, first compound 0.1 µM
[27] = second compound 3.16 µM, first compound 0.316 µM
[28] = second compound 3.16 µM, first compound 1 µM
[29] = second compound 3.16 µM, first compound 3.16 µM
[30] = second compound 3.16 µM, first compound 10 µM
[31] = second compound 10 µM, first compound 0.0316 µM
[32] = second compound 10 µM, first compound 0.1 µM
[33] = second compound 10 µM, first compound 0.316 µM
[34] = second compound 10 µM, first compound 1 µM
[35] = second compound 10 µM, first compound 3.16 µM
[36] = second compound 10 µM, first compound 10 µM
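Also: spheroids exposed to drugs for seven days.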
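For viability, T/C in this document: 100% = DMSO vehicle control viability.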

IC50 (second compound 0.0316 µM): > 10 µM
IC50 (second compound 0.1 µM): > 10 µM
IC50 (second compound 0.316 µM): > 10 µM
IC50 (second compound 1 µM): > 10 µM
IC50 (second compound 3.16 µM): > 10 µM
IC50 (second compound 10 µM): 8.24 µM
Compound: C=CCn1c(=O)c2cnc(Nc3ccc(N4CCN(C)CC4)cc3)nc2n1-c1cccc(C(C)(C)O)n1 + Cc1cnc(CNC(=O)c2c(=O)c3ccc(N4CCCN(C)CC4)nc3n3c2sc2ccccc23)cn1
viability, T/C [1]: 93.4%
viability, T/C [2]: 70.5%
viability, T/C [3]: 64.3%
viability, T/C [4]: 65.9%
viability, T/C [5]: 69.1%
viability, T/C [6]: 78%
viability, T/C [7]: 75.9%
viability, T/C [8]: 86%
viability, T/C [9]: 80.2%
viability, T/C [10]: 72.2%
viability, T/C [11]: 73.1%
viability, T/C [12]: 67.8%
viability, T/C [13]: 89.8%
viability, T/C [14]: 82.1%
viability, T/C [15]: 76%
viability, T/C [16]: 61.3%
viability, T/C [17]: 66%
viability, T/C [18]: 61.9%
viability, T/C [19]: 76.1%
viability, T/C [20]: 83%
viability, T/C [21]: 76.5%
viability, T/C [22]: 67.9%
viability, T/C [23]: 62%
viability, T/C [24]: 62.4%
viability, T/C [25]: 76.5%
viability, T/C [26]: 71.5%
viability, T/C [27]: 59.6%
viability, T/C [28]: 55.4%
viability, T/C [29]: 52.5%
viability, T/C [30]: 58%
viability, T/C [31]: 57.8%
viability, T/C [32]: 66.1%
viability, T/C [33]: 65.6%
viability, T/C [34]: 54.9%
viability, T/C [35]: 58.6%
viability, T/C [36]: 48.4%

IC50 (second compound 0.0316 µM): > 10 µM
IC50 (second compound 0.1 µM): > 10 µM
IC50 (second compound 0.316 µM): > 10 µM
IC50 (second compound 1 µM): > 10 µM
IC50 (second compound 3.16 µM): > 10 µM
IC50 (second compound 10 µM): > 10 µM
Compound: CCCS(=O)(=O)Nc1ccc(F)c(C(=O)c2c[nH]c3ncc(-c4ccc(Cl)cc4)cc23)c1F + Cc1cnc(CNC(=O)c2c(=O)c3ccc(N4CCCN(C)CC4)nc3n3c2sc2ccccc23)cn1
viability, T/C [1]: 82.2%
viability, T/C [2]: 93.7%
viability, T/C [3]: 117%
viability, T/C [4]: 105%
viability, T/C [5]: 112%
viability, T/C [6]: 75.7%
viability, T/C [7]: 92%
viability, T/C [8]: 87.3%
viability, T/C [9]: 96.4%
viability, T/C [10]: 105%
viability, T/C [11]: 99.5%
viability, T/C [12]: 82.9%
viability, T/C [13]: 80.8%
viability, T/C [14]: 99.1%
viability, T/C [15]: 101%
viability, T/C [16]: 100%
viability, T/C [17]: 101%
viability, T/C [18]: 79.9%
viability, T/C [19]: 89.3%
viability, T/C [20]: 81.8%
viability, T/C [21]: 97.7%
viability, T/C [22]: 79.2%
viability, T/C [23]: 95%
viability, T/C [24]: 74.3%
viability, T/C [25]: 94.2%
viability, T/C [26]: 76.4%
viability, T/C [27]: 81.9%
viability, T/C [28]: 80.2%
viability, T/C [29]: 71.4%
viability, T/C [30]: 62.2%
viability, T/C [31]: 67.4%
viability, T/C [32]: 70%
viability, T/C [33]: 64.3%
viability, T/C [34]: 69.7%
viability, T/C [35]: 77.1%
viability, T/C [36]: 50.5%

IC50 (second compound 0.0316 µM): > 10 µM
IC50 (second compound 0.1 µM): > 10 µM
IC50 (second compound 0.316 µM): > 10 µM
IC50 (second compound 1 µM): > 10 µM
IC50 (second compound 3.16 µM): > 10 µM
IC50 (second compound 10 µM): > 10 µM
Compound: COc1ncnc(C2CC2)c1-c1ncc2cnn(Cc3ccc(-c4nc(C(F)(F)F)cn4C(C)C)cc3)c2n1 + Cc1cnc(CNC(=O)c2c(=O)c3ccc(N4CCCN(C)CC4)nc3n3c2sc2ccccc23)cn1
viability, T/C [1]: 81.9%
viability, T/C [2]: 77.1%
viability, T/C [3]: 66.1%
viability, T/C [4]: 79.7%
viability, T/C [5]: 86.2%
viability, T/C [6]: 89%
viability, T/C [7]: 76.2%
viability, T/C [8]: 95.5%
viability, T/C [9]: 83%
viability, T/C [10]: 84.2%
viability, T/C [11]: 76.9%
viability, T/C [12]: 84.5%
viability, T/C [13]: 87.3%
viability, T/C [14]: 91.2%
viability, T/C [15]: 83.4%
viability, T/C [16]: 87.9%
viability, T/C [17]: 78.4%
viability, T/C [18]: 86.4%
viability, T/C [19]: 84.6%
viability, T/C [20]: 81.4%
viability, T/C [21]: 81.5%
viability, T/C [22]: 74.5%
viability, T/C [23]: 74.8%
viability, T/C [24]: 89.6%
viability, T/C [25]: 76.1%
viability, T/C [26]: 65.1%
viability, T/C [27]: 80.5%
viability, T/C [28]: 62.4%
viability, T/C [29]: 64.5%
viability, T/C [30]: 75.5%
viability, T/C [31]: 67.9%
viability, T/C [32]: 60.9%
viability, T/C [33]: 64.3%
viability, T/C [34]: 62.9%
viability, T/C [35]: 69.6%
viability, T/C [36]: 65.2%

IC50 (second compound 0.0316 µM): 0.456 µM
IC50 (second compound 0.1 µM): 0.284 µM
IC50 (second compound 0.316 µM): 0.281 µM
IC50 (second compound 1 µM): 0.195 µM
IC50 (second compound 3.16 µM): 0.146 µM
IC50 (second compound 10 µM): 0.112 µM
Compound: O=C(NO)c1cnc(N2CCN(S(=O)(=O)c3ccc4ccccc4c3)CC2)nc1 + Cc1cnc(CNC(=O)c2c(=O)c3ccc(N4CCCN(C)CC4)nc3n3c2sc2ccccc23)cn1
viability, T/C [1]: 102%
viability, T/C [2]: 86.2%
viability, T/C [3]: 69%
viability, T/C [4]: 10.2%
viability, T/C [5]: 5.35%
viability, T/C [6]: 4.15%
viability, T/C [7]: 93.9%
viability, T/C [8]: 94.6%
viability, T/C [9]: 44.4%
viability, T/C [10]: 13.8%
viability, T/C [11]: 5.07%
viability, T/C [12]: 3.5%
viability, T/C [13]: 84.6%
viability, T/C [14]: 85.2%
viability, T/C [15]: 46%
viability, T/C [16]: 6.38%
viability, T/C [17]: 5.3%
viability, T/C [18]: 5.47%
viability, T/C [19]: 67.8%
viability, T/C [20]: 86%
viability, T/C [21]: 30.5%
viability, T/C [22]: 6.13%
viability, T/C [23]: 4.71%
viability, T/C [24]: 4.58%
viability, T/C [25]: 72.2%
viability, T/C [26]: 63.9%
viability, T/C [27]: 21.5%
viability, T/C [28]: 5.71%
viability, T/C [29]: 5.15%
viability, T/C [30]: 5.15%
viability, T/C [31]: 71.6%
viability, T/C [32]: 54.2%
viability, T/C [33]: 11.4%
viability, T/C [34]: 5.41%
viability, T/C [35]: 4.71%
viability, T/C [36]: 3.76%

Reference: PubChem BioAssay AID2060496 (Molecular Pharmacology Branch, DTP, NCI, 2025)
